We go through 19 compounds from article PMC11550483 (2024).

Each structure is given as a SMILES string.

The target of this assay is SARS2 M^pro (Severe acute respiratory syndrome coronavirus 2, UniProt P0DTD1, P3395H). The class given is biochemical, SARS-CoV-2.
Take `N#Cc1ccccc1CN1C(=O)C(=O)c2ccccc21` [MWAC-0001764, O=C1N(Cc2ccccc2C#N)c3ccccc3C1=O]: the “% inhibition (20 µM) biochemical” value came to 7%.

For the compound `O=C(CN1C(=O)C(=O)N(Cc2ccccc2)C1=O)Nc1cc(Cl)cc(Cl)c1` [MWAC-0001847, Clc1cc(Cl)cc(NC(=O)CN2C(=O)N(Cc3ccccc3)C(=O)C2=O)c1], the “% inhibition (20 µM) biochemical” value is reported as 0.75%.

In the case of `Cc1ccccc1C(=O)Nc1ccc(Br)cc1` [MWAC-0001804, Cc1ccccc1C(=O)Nc2ccc(Br)cc2], the “% inhibition (20 µM) biochemical” value is given as 2.44%.

With `COc1ccc(C2=NN3C(C2)c2ccccc2OC32C(=O)Nc3ccccc32)cc1OC` (stereo not shown) [MWAC-0001819, COc1ccc(cc1OC)C2=NN3C(C2)c4ccccc4OC35C(=O)Nc6ccccc56], the “% inhibition (20 µM) biochemical” value was 0.611%.

For `CCOc1ccccc1C1Nc2ccccc2NC2=C1C(=O)CC(c1ccccc1)C2` (stereo not shown) [MWAC-0001718, CCOc1ccccc1C2Nc3ccccc3NC4=C2C(=O)CC(C4)c5ccccc5], the “% inhibition (20 µM) biochemical” value is listed as 0%.

As for `CCC(=O)OCC(=O)NCc1ccc2c(c1)OCO2` [MWAC-0001887, CCC(=O)OCC(=O)NCc1ccc2OCOc2c1], the “% inhibition (20 µM) biochemical” value stood at 0%.

As to `O=C(CCl)NC(NC(=O)CCl)c1ccccc1F` [MWAC-0001862, Fc1ccccc1C(NC(=O)CCl)NC(=O)CCl], the “% inhibition (20 µM) biochemical” value was found to be 40%.

`CCOC(=O)N1CCN(c2nncc(-c3ccc4ccccc4c3)n2)CC1` [MWAC-0001757, CCOC(=O)N1CCN(CC1)c2nncc(n2)c3ccc4ccccc4c3]: the “% inhibition (20 µM) biochemical” value turned out to be 38%.

Turning to `COC(=O)CSC1=C(C#N)C(c2ccccc2OC)CC(=O)N1` (stereo not shown) [MWAC-0001735, COC(=O)CSC1=C(C#N)C(CC(=O)N1)c2ccccc2OC], the “% inhibition (20 µM) biochemical” value is reported as 4.32%.

Regarding `O=C1/C(=C/c2cccnc2)SC(=S)N1Cc1cccnc1` [MWAC-0001816, O=C1N(Cc2cccnc2)C(=S)S/C/1=C\c3cccnc3], the “% inhibition (20 µM) biochemical” value is recorded as 43%.

On to `O=C(CC1(O)C(=O)Nc2ccc(I)cc21)c1cccs1` (stereo not shown) [MWAC-0001763, OC1(CC(=O)c2cccs2)C(=O)Nc3ccc(I)cc13], for which the “% inhibition (20 µM) biochemical” value worked out at 6.56%.

For `CCOC(=O)C(=O)Nc1sc(C(=O)Nc2cccc(Cl)c2)c(C)c1C(=O)OC` [MWAC-0001843, CCOC(=O)C(=O)Nc1sc(C(=O)Nc2cccc(Cl)c2)c(C)c1C(=O)OC], the “% inhibition (20 µM) biochemical” value amounted to 5.71%.

For the compound `CCCN1C(=O)C(O)(CC(=O)c2ccccc2OC)c2cc(Br)ccc21` (stereo not shown) [MWAC-0001769, CCCN1C(=O)C(O)(CC(=O)c2ccccc2OC)c3cc(Br)ccc13], the “% inhibition (20 µM) biochemical” value is 2.64%.

For `COc1cccc(NC(=O)Cn2c(=O)n(C)c(=O)n(-c3ccc(Oc4ccc(SC(F)(F)F)cc4)c(C)c3)c2=O)c1` [MWAC-0001087, COc1cccc(NC(=O)CN2C(=O)N(C)C(=O)N(C2=O)c3ccc(Oc4ccc(SC(F)(F)F)cc4)c(C)c3)c1], the “% inhibition (20 µM) biochemical” value amounted to 3%.

On to `CCOc1ccc(-c2nc(CSc3nnc(N)[nH]3)cs2)cc1` [MWAC-0001853, CCOc1ccc(cc1)c2nc(CSc3nnc(N)[nH]3)cs2], for which the “% inhibition (20 µM) biochemical” value is recorded as 1.25%.

With `CC1=C(C(=O)OC(C)C)C(c2ccc(F)cc2)C2=C(CC(c3cccs3)CC2=O)N1` (stereo not shown) [MWAC-0001729, CC(C)OC(=O)C1=C(C)NC2=C(C1c3ccc(F)cc3)C(=O)CC(C2)c4cccs4], the “% inhibition (20 µM) biochemical” value is listed as 0%.

For the compound `CC(C)(C)N1C(=O)c2ccc(C(=O)Nc3cccc(O)c3)cc2C1=O` [MWAC-0001722, CC(C)(C)N1C(=O)c2ccc(cc2C1=O)C(=O)Nc3cccc(O)c3], the “% inhibition (20 µM) biochemical” value came to 5.66%.

As to `COc1ccc(C(=O)NNC(=O)Cc2ccc(-c3ccccc3)cc2)cc1` [MWAC-0001846, COc1ccc(cc1)C(=O)NNC(=O)Cc2ccc(cc2)c3ccccc3], the “% inhibition (20 µM) biochemical” value is listed as 0.595%.

On to `C=CCN1C(=O)C(O)(CC(=O)c2ccc(C)cc2)c2cc(Br)ccc21` (stereo not shown) [MWAC-0001738, Cc1ccc(cc1)C(=O)CC2(O)C(=O)N(CC=C)c3ccc(Br)cc23], for which the “% inhibition (20 µM) biochemical” value was 4.69%.
